In patent US11001802B2, “Surface of a vessel with polystyrene, nitrogen, oxygen and a static sessile contact angle for attachment and cultivation of cells” (Nunc A/S, priority 2008, dated 2021):

How the values were obtained:
human ES cell line H9 = assay: Attachment and colony formation of H9 human ES cells on surface modified plates with Rho kinase inhibitors (crystal violet, image analysis); type: cell-based; conditions: H9 on surface modified plates 2, 3, 4 and 13; crystal violet; Y-27632 at 10 μM
Method: Human ES cells of the line H9, at passage 40 were maintained in MEF conditioned media on Nunclon Delta™ plates treated with a 1:30 dilution of growth factor reduced Matrigel™, prior to study. Cells were dissociated from the surface for passage by 1 mg/ml collagenase dissociation or by manual scraping.
These cells were then seeded onto surface modified plates 2, 3, 4 and 13 (12-well format) in the presence of increasing amounts one of the following Rho Kinase inhibitors: Y-27632 (from Sigma, St. Louis, Mo. or EMD, San Diego, Calif.), Fasudil (Sigma), or Hydroxyfasudil (Sigma), and maintained for 3 days, each day replacing the media and compound. At the end of day three, media was removed and the plates were stained with Crystal Violet (0.5% in water) to visualize colonies.
It was attempted to determine the optimal dose of Y-27632 to promote cell binding, by treating cells with a range of plating concentrations of Y-27632 for the first day of culture. After the first day in culture cells were treated on subsequent days with a 10 μM concentration of Y-27632. It was observed that the maximal concentration to stimulate attachment and growth of ES cells was 10 μM (FIG. 12) and that this occurred on surface modified plates 2, 3, 4, 13 and CellBIND™ (Corning, Corning, N.Y.).
The effect of treating the cells continuously with a single dose of Y-27632 on attachment and growth was also tested. The cells were dosed with 0, 1, 4, or 10 μM Y-27632 for 4 days. Some binding was observed on surface modified plates without treatment (0 μM), however the optimal concentration to stimulate attachment and growth of ES cells was 10 μM Y-27632 (Table 4) on surface modified plates 2, 3, 4, 13.

HEK293 cells = assay: HEK293 attachment and growth, culture confluence by IncuCyte Plus (Examples 20, 21); type: cell-based, human
Method: HEK293 cells were maintained in EMEM (Lonza) containing 10% FBS (Lonza). Cells were passaged at 70-80% confluence using Trypsin/EDTA for dissociation, and seeded at c 2.0×10^4 cells/cm^2 in 75-cm^2 flasks with Nunclon Delta™ surface (Thermo Fisher Scientific, Roskilde, Denmark).
EMEM (500 μl) supplemented with 10% FBS containing 1.0, 5.0, 10, 15 or 20 μM Y-27632 (Sigma Chemical Co.), or 0.4, 1.2, 1.6, 2.4 or 2.8 μM H-1152 (Calbiochem, EMD Chemicals Inc., Darmstadt, Germany) was dispensed in Multidish 24-well plates with either Surface 4 or a non-treated (but gamma irradiated; 25 kGy) polystyrene surface. Another 500 μl of EMEM supplemented with 10% FBS and containing HEK293 cells were added to the wells (2.0×10^4 cells/cm^2). The cultures were placed in an IncuCyte™ Plus (Essen Instruments, Michigan, USA) and incubated at 37° C. in a humidified atmosphere of 5% CO2 in air. The IncuCyte™ Plus is an automated imaging platform, configured to fit inside a CO2 incubator, and designed to provide kinetic, non-invasive live cell imaging by acquiring phase contrast images of the cells at user-defined times and locations within the cultures. The primary metric of the instrument is culture confluence, that is, the fraction of the surface that is covered by cells. The HEK293 cells were incubated for 72 hours without manipulations, and images were collected every two hours at 9 positions in triplicate cultures. Culture confluence was determined using the IncuCyte™ Plus software (v. 3.4.1.25966).
EMEM (1.0 ml) supplemented with 10% FBS containing 0.4, 0.8, 1.2, 1.6, 2.0, 2.4 or 2.8 μM H-1152 was dispensed in Multidish 12-well plates with Surface 4. Another 1.0 ml of EMEM supplemented with […] and containing HEK293 cells were added to the wells (4.0×10^4 cells/cm^2). The cultures were placed in an IncuCyte™ Plus, and incubated at 37° C. in a humidified atmosphere of 5% CO2 in air for 42 hours (images were collected every 6 hours). One ml of culture medium was then removed by pipetting, and 1.0 ml EMEM supplemented with 10% FBS containing 0.2, 0.4, 0.6, 0.8, 1.0, 1.2 and 1.4 μM H-1152 was added. The cultures were placed in the IncuCyte™ Plus again, and images were collected every hour over the following 25 hours. Images were collected at 9 positions in triplicate cultures, and culture confluence was determined using the IncuCyte™ Plus software. Images from the IncuCyte™ Plus collected at specific positions in HEK293 cell cultures grown in the absence or presence of H-1152 (0.6 μM) was retrieved and presented as phase-contrast micrographs for the comparison of HEK293 culture morphology at the following time points: start of incubation (0 hours), just before medium change (42 hours), 1 hour after the medium change (43 hours), and, finally, after 52 hours of incubation.

SMILES	attachment of ES cell colonies by day three (human ES cell line H9)	effect of change of 50% of the medium after 42 hours on culture confluence (HEK293 cells; Surface 4, 0.2 μM or 0.4 μM H-1152)	effect of change of 50% of the medium after 42 hours on culture confluence (HEK293 cells; Surface 4, 0.6 μM, 0.8 μM or 1.4 μM H-1152)	attachment and growth of HEK293 cells (HEK293 cells; Surface 4, increasing concentration)	growth and attachment of HEK293 cells (HEK293 cells; non-treated polystyrene surface, 10 μM Y-27632, 0.6-1.2 μM H-1152)
O=c1[nH]ccc2c(S(=O)(=O)N3CCCNCC3)cccc12 [Hydroxyfasudil]	some colonies could be observed to attach and grow	–	–	–	–
Cc1cncc2cccc(S(=O)(=O)N3CCCNC[C@@H]3C)c12 [Surface H-1152, H-1152]	–	significant reduction in culture confluence	minimal	enhances attachment and growth	slightly enhanced
O=S(=O)(c1cccc2cnccc12)N1CCCNCC1 [Fasudil]	some colonies could be observed to attach and grow	–	–	–	–
